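A five-concentration, 48-hour dose response in 96-well plates underlies each endpoint, interpolated linearly between surrounding concentrations. At the GI50, growth is halved.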 Calls of active or inactive are those of the source. Cut-off read from the data, not from the text of the source: active = GI50 up to about 1.1 µM and inactive = higher.
How the values were obtained:
Assay in all cases: DTP human tumour cell line panel, 48 h
HOP-62 = test system: HOP-62
LOX IMVI = test system: LOX IMVI
SF-539 = test system: SF-539
NCI-H522 = test system: NCI-H522
M19-MEL = test system: M19-MEL
UO-31 = test system: UO-31
U-251 = test system: U-251
TK-10 = test system: TK-10
HCT-15 = test system: HCT-15
SK-MEL-2 = test system: SK-MEL-2
LXFL 529 = test system: LXFL 529
SR = test system: SR
IGROV-1 = test system: IGROV-1
DMS-114 = test system: DMS-114
DMS-273 = test system: DMS-273
SK-MEL-5 = test system: SK-MEL-5
SW-620 = test system: SW-620
HOP-18 = test system: HOP-18
UACC-257 = test system: UACC-257
SK-MEL-28 = test system: SK-MEL-28
SF-295 = test system: SF-295
KM-20L2 = test system: KM-20L2
OVCAR-3 = test system: OVCAR-3
MOLT-4 = test system: MOLT-4
HT-29 = test system: HT-29
NCI-H460 = test system: NCI-H460
SNB-19 = test system: SNB-19
786-0 = test system: 786-0
RXF 393 = test system: RXF 393
CCRF-CEM = test system: CCRF-CEM
ACHN = test system: ACHN
COLO 205 = test system: COLO 205
OVCAR-8 = test system: OVCAR-8
SNB-78 = test system: SNB-78
EKVX = test system: EKVX
UACC-62 = test system: UACC-62
OVCAR-5 = test system: OVCAR-5
OVCAR-4 = test system: OVCAR-4
RPMI-8226 = test system: RPMI-8226
DLD-1 = test system: DLD-1
Malme-3M = test system: Malme-3M
HCT-116 = test system: HCT-116
NCI-H23 = test system: NCI-H23
SN12C = test system: SN12C
SK-OV-3 = test system: SK-OV-3
M14 = test system: M14
KM12 = test system: KM12
SNB-75 = test system: SNB-75
K562 = test system: K562
A549 = test system: A549
HL-60 = test system: HL-60
A498 = test system: A498
HOP-92 = test system: HOP-92
NCI-H226 = test system: NCI-H226
SF-268 = test system: SF-268
CAKI-1 = test system: CAKI-1
HCC 2998 = test system: HCC 2998

`CN(C)CC/C(=N\Nc1c(Cl)cccc1Cl)c1ccccc1` was tested, and the GI50 (HOP-62) was 29.4 µM (inactive), the GI50 (LOX IMVI) was 17.3 µM (inactive) and the GI50 (SF-539) was 16.9 µM (inactive). The GI50 (NCI-H522) was 17.5 µM (inactive), the GI50 (M19-MEL) was 18.3 µM (inactive) and the GI50 (UO-31) was 7.08 µM (inactive). The GI50 (U-251) was 16.8 µM (inactive), the GI50 (TK-10) was 16.8 µM (inactive) and the GI50 (HCT-15) was 17.7 µM. For the same molecule, the GI50 (SK-MEL-2) was 18.2 µM (inactive), the GI50 (LXFL 529) was 14.8 µM (inactive) and the GI50 (SR) was 21.5 µM (inactive). For the same molecule, the GI50 (IGROV-1) was 26.6 µM (inactive), the GI50 (DMS-114) was 17.3 µM (inactive) and the GI50 (DMS-273) was 16.8 µM (inactive). The GI50 (SK-MEL-5) was 15.1 µM (inactive), the GI50 (SW-620) was 17.6 µM (inactive) and the GI50 (HOP-18) was 15.1 µM (inactive). For the same molecule, the GI50 (UACC-257) was 17.7 µM (inactive), the GI50 (SK-MEL-28) was 19.2 µM (inactive) and the GI50 (SF-295) was 16 µM (inactive). The GI50 (KM-20L2) was 17.1 µM (inactive), the GI50 (OVCAR-3) was 22.8 µM (inactive) and the GI50 (MOLT-4) was 23.4 µM (inactive). For the same molecule, the GI50 (HT-29) was 15.8 µM (inactive), the GI50 (NCI-H460) was 16.3 µM (inactive) and the GI50 (SNB-19) was 35.1 µM (inactive). For the same molecule, the GI50 (786-0) was 15.3 µM (inactive), the GI50 (RXF 393) was 11.8 µM (inactive) and the GI50 (CCRF-CEM) was 28.2 µM (inactive). The GI50 (ACHN) was 16 µM (inactive), the GI50 (COLO 205) was 15.6 µM (inactive) and the GI50 (OVCAR-8) was 16.9 µM (inactive). The GI50 (SNB-78) was 16.7 µM (inactive), the GI50 (EKVX) was 30.3 µM (inactive) and the GI50 (UACC-62) was 15.8 µM (inactive). The GI50 (OVCAR-5) was 19.2 µM (inactive), the GI50 (OVCAR-4) was 20.3 µM (inactive) and the GI50 (RPMI-8226) was 17.2 µM (inactive). For the same molecule, the GI50 (DLD-1) was 31.1 µM (inactive), the GI50 (Malme-3M) was 21 µM (inactive) and the GI50 (HCT-116) was 15.3 µM (inactive). The GI50 (NCI-H23) was 15.6 µM (inactive), the GI50 (SN12C) was 28.7 µM (inactive) and the GI50 (SK-OV-3) was 22.5 µM (inactive). The GI50 (M14) was 18.2 µM (inactive), the GI50 (KM12) was 17 µM (inactive) and the GI50 (SNB-75) was 15.2 µM (inactive). The GI50 (K562) was 20.6 µM (inactive), the GI50 (A549) was 29.3 µM (inactive) and the GI50 (HL-60) was 16.3 µM (inactive). The GI50 (A498) was 16.6 µM (inactive).

For `O=c1oc2c3ccc4ccccc4c3n(Cc3nc4ccccc4[nH]3)c2c2ccccc12`, the GI50 (HOP-62) was 4.16 µM (inactive), the GI50 (HOP-92) was > 29.3 µM (inactive) and the GI50 (LOX IMVI) was 2.26 µM (inactive). For the same molecule, the GI50 (SF-539) was 3.54 µM (inactive), the GI50 (NCI-H522) was 4.42 µM (inactive) and the GI50 (M19-MEL) was 5.46 µM (inactive). The GI50 (UO-31) was 1.95 µM (inactive), the GI50 (NCI-H226) was 7.03 µM (inactive) and the GI50 (U-251) was 4.25 µM (inactive). For the same molecule, the GI50 (TK-10) was > 100 µM (inactive), the GI50 (SF-268) was 15.6 µM (inactive) and the GI50 (HCT-15) was 1.37 µM. The GI50 (SK-MEL-2) was 41.3 µM (inactive), the GI50 (LXFL 529) was 9.66 µM (inactive) and the GI50 (SR) was 0.791 µM (active). For the same molecule, the GI50 (IGROV-1) was > 29.3 µM (inactive), the GI50 (DMS-114) was 4.95 µM (inactive) and the GI50 (SW-620) was 2.2 µM (inactive). The GI50 (HOP-18) was 7.57 µM (inactive), the GI50 (UACC-257) was 5.01 µM (inactive) and the GI50 (SK-MEL-28) was > 26.7 µM (inactive). For the same molecule, the GI50 (SF-295) was 9.14 µM (inactive), the GI50 (KM-20L2) was > 69.5 µM (inactive) and the GI50 (OVCAR-3) was 7.08 µM (inactive). For the same molecule, the GI50 (MOLT-4) was 1.11 µM (active), the GI50 (HT-29) was 4.48 µM (inactive) and the GI50 (NCI-H460) was 0.518 µM (active). The GI50 (SNB-19) was 4.5 µM (inactive), the GI50 (786-0) was 7.16 µM (inactive) and the GI50 (RXF 393) was 9.4 µM (inactive). The GI50 (CCRF-CEM) was 1.07 µM (active), the GI50 (ACHN) was 3.89 µM (inactive) and the GI50 (COLO 205) was 12.7 µM (inactive). The GI50 (OVCAR-8) was 13.7 µM (inactive), the GI50 (SNB-78) was > 100 µM (inactive) and the GI50 (EKVX) was 23.6 µM (inactive). For the same molecule, the GI50 (UACC-62) was 3.28 µM (inactive), the GI50 (OVCAR-5) was > 36.2 µM (inactive) and the GI50 (CAKI-1) was 3.77 µM (inactive). For the same molecule, the GI50 (OVCAR-4) was 24.9 µM (inactive), the GI50 (RPMI-8226) was 3.48 µM (inactive) and the GI50 (DLD-1) was 5.73 µM (inactive). For the same molecule, the GI50 (Malme-3M) was > 100 µM (inactive), the GI50 (HCT-116) was 4.72 µM (inactive) and the GI50 (NCI-H23) was 4.95 µM (inactive). For the same molecule, the GI50 (SN12C) was 3.72 µM (inactive), the GI50 (SK-OV-3) was > 100 µM (inactive) and the GI50 (M14) was 4.71 µM (inactive). For the same molecule, the GI50 (HCC 2998) was 40.4 µM (inactive), the GI50 (KM12) was > 64.4 µM (inactive) and the GI50 (SNB-75) was 5.51 µM (inactive). For the same molecule, the GI50 (K562) was 2.47 µM (inactive), the GI50 (A549) was 5.61 µM (inactive) and the GI50 (HL-60) was 3.7 µM (inactive). For the same molecule, the GI50 (A498) was 24.4 µM (inactive).

Reference: ChEMBL document CHEMBL1201862, “PubChem BioAssay data set” (2004)
